Data: PubChem BioAssay (NCI)
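Assay format: 96-well plates, 48-hour exposure. TGI: total growth inhibition.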

How the values were obtained:
Test in all cases: NCI anticancer screen, dose series, 48 h
COLO 205 colon = tested on: COLO 205 colon
SW-620 colon = tested on: SW-620 colon
OVCAR-5 ovarian = tested on: OVCAR-5 ovarian
NCI-H23 lung = tested on: NCI-H23 lung
SK-OV-3 ovarian = tested on: SK-OV-3 ovarian
EKVX NSCLC = tested on: EKVX NSCLC
UACC-257 melanoma = tested on: UACC-257 melanoma
NCI-H460 lung = tested on: NCI-H460 lung
OVCAR-3 ovarian = tested on: OVCAR-3 ovarian
MDA-MB-231 breast = tested on: MDA-MB-231 breast
SK-MEL-28 melanoma = tested on: SK-MEL-28 melanoma
PC-3 prostate = tested on: PC-3 prostate
SN12C renal = tested on: SN12C renal
MCF7 breast = tested on: MCF7 breast
A549 NSCLC = tested on: A549 NSCLC
M14 melanoma = tested on: M14 melanoma
U251 CNS = tested on: U251 CNS
OVCAR-8 ovarian = tested on: OVCAR-8 ovarian
HCT-116 colon = tested on: HCT-116 colon
SF-295 CNS = tested on: SF-295 CNS
HCC-2998 colon = tested on: HCC-2998 colon
IGROV1 ovarian = tested on: IGROV1 ovarian
HCT-15 colon = tested on: HCT-15 colon
MDA-MB-435 = tested on: MDA-MB-435
KM12 colon = tested on: KM12 colon
NCI-H522 lung = tested on: NCI-H522 lung
SNB-19 CNS = tested on: SNB-19 CNS
UACC-62 melanoma = tested on: UACC-62 melanoma
SK-MEL-5 melanoma = tested on: SK-MEL-5 melanoma
UO-31 renal = tested on: UO-31 renal
BT-549 breast = tested on: BT-549 breast
A498 renal = tested on: A498 renal
786-0 renal = tested on: 786-0 renal
NCI-H226 lung = tested on: NCI-H226 lung
HT29 colon = tested on: HT29 colon
RXF 393 renal = tested on: RXF 393 renal
T-47D breast = tested on: T-47D breast
TK-10 renal = tested on: TK-10 renal
SNB-75 CNS = tested on: SNB-75 CNS
RPMI-8226 leukemia = tested on: RPMI-8226 leukemia
HOP-92 NSCLC = tested on: HOP-92 NSCLC
MOLT-4 leukemia = tested on: MOLT-4 leukemia
ACHN renal = tested on: ACHN renal
DU-145 prostate = tested on: DU-145 prostate
NCI/ADR-RES ovarian = tested on: NCI/ADR-RES ovarian
SK-MEL-2 melanoma = tested on: SK-MEL-2 melanoma
MALME-3M melanoma = tested on: MALME-3M melanoma
HOP-62 NSCLC = tested on: HOP-62 NSCLC
HS 578T breast = tested on: HS 578T breast
OVCAR-4 ovarian = tested on: OVCAR-4 ovarian
K-562 leukemia = tested on: K-562 leukemia
CAKI-1 renal = tested on: CAKI-1 renal
SF-539 CNS = tested on: SF-539 CNS
SF-268 CNS = tested on: SF-268 CNS

For `Oc1ccc2ccccc2c1OCc1nnc(CCCCCCCCc2nnc(COc3c(O)ccc4ccccc34)n2Nc2ccccc2)n1Nc1ccccc1`, which TGI (COLO 205 colon) is on record?
The TGI was 1280 nM.

And the TGI (SW-620 colon)?
The TGI was > 100 µM.

And the TGI (OVCAR-5 ovarian)?
Its TGI is > 95.9 µM.

What about the TGI (NCI-H23 lung) of the same compound?
Its TGI is > 75.2 µM.

What about the TGI (SK-OV-3 ovarian) of the same compound?
Its TGI is > 100 µM.

And the TGI (EKVX NSCLC)?
Its TGI is > 76.8 µM.

And the TGI (UACC-257 melanoma)?
Its TGI is > 80 µM.

What about the TGI (NCI-H460 lung) of the same compound?
The TGI was > 100 µM.

And the TGI (OVCAR-3 ovarian)?
Its TGI is 32.1 µM.

And the TGI (MDA-MB-231 breast)?
Its TGI is 61.1 µM.

What about the TGI (SK-MEL-28 melanoma) of the same compound?
Its TGI is > 87.7 µM.

And the TGI (PC-3 prostate)?
Its TGI is > 100 µM.

And the TGI (SN12C renal)?
The TGI was > 100 µM.

What about the TGI (MCF7 breast) of the same compound?
Its TGI is > 100 µM.

What about the TGI (A549 NSCLC) of the same compound?
Its TGI is > 100 µM.

What about the TGI (M14 melanoma) of the same compound?
The TGI was 44.7 µM.

What about the TGI (U251 CNS) of the same compound?
Its TGI is > 58.9 µM.

What about the TGI (OVCAR-8 ovarian) of the same compound?
Its TGI is 63.1 µM.

And the TGI (HCT-116 colon)?
Its TGI is 26 µM.

What about the TGI (SF-295 CNS) of the same compound?
Its TGI is > 100 µM.

And the TGI (HCC-2998 colon)?
Its TGI is 31 µM.

What about the TGI (IGROV1 ovarian) of the same compound?
Its TGI is > 81.8 µM.

And the TGI (HCT-15 colon)?
Its TGI is 77.7 µM.

And the TGI (MDA-MB-435)?
Its TGI is 31.8 µM.

And the TGI (KM12 colon)?
The TGI was 33 µM.

What about the TGI (NCI-H522 lung) of the same compound?
The TGI was 26.6 µM.

And the TGI (SNB-19 CNS)?
Its TGI is > 100 µM.

What about the TGI (UACC-62 melanoma) of the same compound?
Its TGI is 26.6 µM.

What about the TGI (SK-MEL-5 melanoma) of the same compound?
Its TGI is 2370 nM.

What about the TGI (UO-31 renal) of the same compound?
Its TGI is > 82 µM.

What about the TGI (BT-549 breast) of the same compound?
Its TGI is 77.7 µM.

And the TGI (A498 renal)?
The TGI was > 100 µM.

What about the TGI (786-0 renal) of the same compound?
The TGI was 58.7 µM.

What about the TGI (NCI-H226 lung) of the same compound?
Its TGI is > 91.1 µM.

What about the TGI (HT29 colon) of the same compound?
Its TGI is 36.3 µM.

What about the TGI (RXF 393 renal) of the same compound?
Its TGI is > 78 µM.

And the TGI (T-47D breast)?
Its TGI is > 100 µM.

And the TGI (TK-10 renal)?
Its TGI is > 100 µM.

And the TGI (SNB-75 CNS)?
Its TGI is > 100 µM.

What about the TGI (RPMI-8226 leukemia) of the same compound?
The TGI was > 100 µM.

And the TGI (HOP-92 NSCLC)?
Its TGI is 61.5 µM.

What about the TGI (MOLT-4 leukemia) of the same compound?
Its TGI is > 100 µM.

What about the TGI (ACHN renal) of the same compound?
The TGI was > 100 µM.

What about the TGI (DU-145 prostate) of the same compound?
The TGI was > 70.1 µM.

And the TGI (NCI/ADR-RES ovarian)?
Its TGI is 56.9 µM.

What about the TGI (SK-MEL-2 melanoma) of the same compound?
Its TGI is > 76.6 µM.

What about the TGI (MALME-3M melanoma) of the same compound?
Its TGI is 56.2 µM.

And the TGI (HOP-62 NSCLC)?
The TGI was 41.9 µM.

What about the TGI (HS 578T breast) of the same compound?
Its TGI is 65.2 µM.

What about the TGI (OVCAR-4 ovarian) of the same compound?
The TGI was > 100 µM.

What about the TGI (K-562 leukemia) of the same compound?
The TGI was > 100 µM.

What about the TGI (CAKI-1 renal) of the same compound?
The TGI was > 56.5 µM.

And the TGI (SF-539 CNS)?
Its TGI is 26.7 µM.

What about the TGI (SF-268 CNS) of the same compound?
Its TGI is > 100 µM.
